Source: patent US20150246938A1, “NOVEL OLEFIN DERIVATIVE” (SHIONOGI & CO., LTD., priority 2011, published 2015)

Each molecule was assayed against T1, recombinant human ACC2 (Homo sapiens, UniProt O00763) (assay: Measurement of inhibitory activity on human ACC2 (MALDI-TOF MS, acetyl CoA to malonyl CoA conversion)). Details: not given.
T1 construct: a cDNA encoding human ACC2 (27-2458) was cloned from human kidney cDNA library (Clontech); His-tag (N); made in house; host or cells: Sf-9 insect cells (Bac-to-Bac baculovirus)
T1 sequence (O00763 27-2458): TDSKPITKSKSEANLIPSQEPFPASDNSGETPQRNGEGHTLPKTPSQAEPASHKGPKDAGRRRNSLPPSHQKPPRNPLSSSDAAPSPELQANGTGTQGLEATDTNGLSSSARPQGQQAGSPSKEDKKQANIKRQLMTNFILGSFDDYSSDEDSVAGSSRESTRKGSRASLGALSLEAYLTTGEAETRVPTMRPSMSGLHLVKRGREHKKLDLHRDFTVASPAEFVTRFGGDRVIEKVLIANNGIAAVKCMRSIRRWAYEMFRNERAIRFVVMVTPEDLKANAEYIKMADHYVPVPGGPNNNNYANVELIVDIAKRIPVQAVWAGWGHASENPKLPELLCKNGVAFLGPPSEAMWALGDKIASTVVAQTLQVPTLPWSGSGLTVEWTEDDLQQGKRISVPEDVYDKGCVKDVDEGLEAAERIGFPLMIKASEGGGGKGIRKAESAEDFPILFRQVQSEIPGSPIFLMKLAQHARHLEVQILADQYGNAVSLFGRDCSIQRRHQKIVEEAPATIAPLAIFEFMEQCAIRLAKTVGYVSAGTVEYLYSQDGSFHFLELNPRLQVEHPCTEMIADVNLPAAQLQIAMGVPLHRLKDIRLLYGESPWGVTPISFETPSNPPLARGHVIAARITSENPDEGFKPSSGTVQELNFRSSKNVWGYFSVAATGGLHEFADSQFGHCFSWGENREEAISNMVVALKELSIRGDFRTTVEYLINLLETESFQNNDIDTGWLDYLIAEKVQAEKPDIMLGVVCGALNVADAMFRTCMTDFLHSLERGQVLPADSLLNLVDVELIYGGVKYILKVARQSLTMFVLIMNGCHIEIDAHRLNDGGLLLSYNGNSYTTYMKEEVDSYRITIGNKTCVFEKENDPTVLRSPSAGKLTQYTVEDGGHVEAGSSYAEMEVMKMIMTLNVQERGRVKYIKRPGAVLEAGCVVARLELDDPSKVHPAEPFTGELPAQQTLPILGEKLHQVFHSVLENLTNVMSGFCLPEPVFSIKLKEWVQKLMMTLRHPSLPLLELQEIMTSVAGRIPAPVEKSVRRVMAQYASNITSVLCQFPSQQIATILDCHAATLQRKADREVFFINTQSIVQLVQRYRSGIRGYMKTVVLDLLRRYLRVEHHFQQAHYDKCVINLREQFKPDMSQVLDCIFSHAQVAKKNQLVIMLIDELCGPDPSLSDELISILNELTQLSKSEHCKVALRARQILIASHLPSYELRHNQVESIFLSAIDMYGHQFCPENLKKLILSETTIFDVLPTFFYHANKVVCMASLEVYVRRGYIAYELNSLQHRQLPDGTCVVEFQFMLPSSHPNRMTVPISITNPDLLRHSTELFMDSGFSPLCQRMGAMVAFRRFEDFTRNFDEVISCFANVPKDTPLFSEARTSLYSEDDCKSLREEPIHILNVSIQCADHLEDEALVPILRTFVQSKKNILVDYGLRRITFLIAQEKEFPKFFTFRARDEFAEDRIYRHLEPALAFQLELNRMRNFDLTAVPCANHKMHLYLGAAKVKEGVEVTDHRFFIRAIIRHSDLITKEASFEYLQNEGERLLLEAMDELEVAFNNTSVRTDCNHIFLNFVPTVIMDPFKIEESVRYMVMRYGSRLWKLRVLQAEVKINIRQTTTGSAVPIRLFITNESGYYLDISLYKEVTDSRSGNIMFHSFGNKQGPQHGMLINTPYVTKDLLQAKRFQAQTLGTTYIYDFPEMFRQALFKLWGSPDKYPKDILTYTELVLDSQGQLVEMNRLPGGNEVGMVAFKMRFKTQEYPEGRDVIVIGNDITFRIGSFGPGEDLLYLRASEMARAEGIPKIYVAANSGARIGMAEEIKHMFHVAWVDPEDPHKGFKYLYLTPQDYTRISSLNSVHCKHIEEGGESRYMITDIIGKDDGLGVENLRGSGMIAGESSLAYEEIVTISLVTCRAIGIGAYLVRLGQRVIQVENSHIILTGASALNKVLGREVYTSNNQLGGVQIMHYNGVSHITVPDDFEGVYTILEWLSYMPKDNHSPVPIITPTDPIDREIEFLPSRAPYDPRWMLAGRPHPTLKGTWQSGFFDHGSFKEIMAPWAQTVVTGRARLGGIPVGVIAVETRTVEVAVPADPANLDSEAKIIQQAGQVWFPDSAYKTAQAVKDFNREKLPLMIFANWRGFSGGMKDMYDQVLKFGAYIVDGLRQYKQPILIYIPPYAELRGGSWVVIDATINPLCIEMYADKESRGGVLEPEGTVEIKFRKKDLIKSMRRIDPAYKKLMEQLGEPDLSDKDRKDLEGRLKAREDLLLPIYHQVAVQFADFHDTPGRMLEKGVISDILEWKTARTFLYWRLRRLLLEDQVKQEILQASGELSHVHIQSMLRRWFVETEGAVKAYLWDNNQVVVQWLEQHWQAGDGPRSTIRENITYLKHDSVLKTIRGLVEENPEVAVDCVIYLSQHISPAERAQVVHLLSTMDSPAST
Assay type: biochemical

Structure (SMILES) | IC50 [nM]
CCNC(=O)N[C@@H](C)/C=C/c1cnc(Oc2ccc(OCC3CC3)cc2Cl)s1 [Compound I-195] | 61

Same assay, conditions: inhibition activity on human ACC2, Table 80; read-out: IC50

Structure (SMILES) | IC50 [nM]
C[C@@H](/C=C/c1cnc(Oc2ccc(OCC3CC3)cc2Cl)s1)NC(=O)c1cccc(C#N)c1 [Compound I-155] | 580
COc1cccc(C(=O)N[C@@H](C)/C=C/c2cnc(Oc3ccc(OCC4CC4)cc3Cl)s2)c1 [Compound I-156] | 930
COc1cc(C(=O)N[C@@H](C)/C=C/c2cnc(Oc3ccc(OCC4CC4)cc3Cl)s2)ccn1 [Compound I-157] | 260
CCOCn1ccnc1-c1cc(C(=O)N[C@@H](C)/C=C/c2cnc(Oc3ccc(OCC4CC4)cc3Cl)s2)ccn1 [Compound I-158] | 1400
CC(=O)Nc1ncc(C(=O)N[C@@H](C)/C=C/c2cnc(Oc3ccc(OCC4CC4)cc3Cl)s2)s1 [Compound I-159] | 220
CCCOc1ccc(Oc2ncc(/C=C/[C@H](C)NC(=O)C3(C#N)CC3)s2)c(Cl)c1 [Compound I-162] | 320
CCCOc1ccc(Oc2ncc(/C=C/[C@H](C)NC(=O)c3ccnc(N)c3)s2)c(Cl)c1 [Compound I-163] | 280
CCCOc1ccc(Oc2ncc(/C=C/[C@H](C)NC(=O)c3ccncc3F)s2)c(Cl)c1 [Compound I-164] | 850
CCCOc1ccc(Oc2ncc(/C=C/[C@H](C)NC(=O)c3ccnc(N4CCOCC4)c3)s2)c(Cl)c1 [Compound I-165] | 490
CCCOc1ccc(Oc2ncc(/C=C/[C@H](C)NC(=O)c3ccnc(C(=O)OCC)c3)s2)c(Cl)c1 [Compound I-168] | 22
CCCOc1ccc(Oc2ncc(/C=C/[C@H](C)NC(=O)c3ccncc3)s2)c(Cl)c1 [Compound I-169] | 370
C[C@@H](/C=C/c1cnn(Cc2ccc(OCC3CC3)cc2Cl)c1)NC(=O)C1CC1 [Compound I-172] | 600
CCOC(=O)c1cc(C(=O)N[C@@H](C)/C=C/c2cnn(Cc3ccc(OCC4CC4)cc3Cl)c2)ccn1 [Compound I-173] | 59
C[C@@H](/C=C/c1cnn(Cc2ccc(OCC3CC3)cc2Cl)c1)NC(=O)c1ccon1 [Compound I-174] | 2600
C[C@@H](/C=C/c1cnc(Oc2ccc(OCC3CC3)cc2Cl)s1)NC(=O)C(F)F [Compound I-177] | 18
CCOc1ccc(Oc2ccc(/C=C/[C@H](C)NC(=O)C(F)F)cn2)c(Cl)c1 [Compound I-179] | 42
COC(=O)N[C@@H](C)/C=C/c1cnn(Cc2ccc(OCC3CC3)cc2Cl)c1 [Compound I-183] | 660
CCOc1ccc(Oc2ccc(/C=C/[C@H](C)NC(N)=O)cn2)c(Cl)c1 [Compound I-184] | 110
CCOc1ccc(C(F)(F)c2ccc(/C=C/[C@H](C)NC(N)=O)cn2)c(Cl)c1 [Compound I-188] | 1800
COCCNC(=O)N[C@@H](C)/C=C/c1cnc(Oc2ccc(OCC3CC3)cc2Cl)s1 [Compound I-189] | 240
C[C@@H](/C=C/c1cnc(Oc2ccc(OCC3CC3)cc2Cl)s1)NC(=O)NCC(F)F [Compound I-192] | 81
C[C@@H](/C=C/c1cnc(Oc2ccc(OCC3CC3)cc2Cl)s1)NC(=O)NCC(F)(F)F [Compound I-193] | 140

Structure (SMILES) | IC50 [nM]
C[C@@H](/C=C/c1cnc(Oc2ccc(OCC3CC3)cc2Cl)s1)NC(=O)NCCC(F)(F)F [Compound I-194] | 300
CCNC(=O)N[C@@H](C)/C=C/c1cnn(Cc2ccc(OCC3CC3)cc2Cl)c1 [Compound I-196] | 1100
CCOc1ccc(Oc2ccc(/C=C/[C@H](C)Nc3cc(C)on3)cn2)c(Cl)c1 [Compound I-203] | 69
CCOc1ccc(Oc2ccc(/C=C/[C@H](C)Nc3cc(C)no3)cn2)c(Cl)c1 [Compound I-204] | 38
Cc1cc(N[C@@H](C)/C=C/c2cnn(Cc3ccc(OCC4CC4)cc3Cl)c2)no1 [Compound I-205] | 1600
C[C@@H](/C=C/c1cnc(Oc2ccc(OCC3CC3)cc2Cl)s1)NC(=O)c1ccnc(C(=O)NCCO)c1 [Compound I-206] | 6.3
C[C@@H](/C=C/c1cnc(Oc2ccc(OCC3CC3)cc2Cl)s1)NC(=O)c1ccnc(C(=O)NCCN2CCOCC2)c1 [Compound I-208] | 4.9
C[C@@H](/C=C/c1cnc(Oc2ccc(OCC3CC3)cc2Cl)s1)NC(=O)c1ccnc(C(=O)NC2CCOCC2)c1 [Compound I-209] | 4.5
C[C@@H](/C=C/c1cnc(Oc2ccc(OCC3CC3)cc2Cl)s1)NC(=O)c1ccnc(C(=O)NCCN(C)C)c1 [Compound I-214] | 18
C[C@@H](/C=C/c1cnc(Oc2ccc(OCC3CC3)cc2Cl)s1)NC(=O)c1ccnc(C(=O)NCCN2CCCC2)c1 [Compound I-215] | 24
CC(C)ONC(=O)c1cc(C(=O)N[C@@H](C)/C=C/c2cnc(Oc3ccc(OCC4CC4)cc3Cl)s2)ccn1 [Compound I-216] | 69
CCNC(=O)c1cc(C(=O)N[C@@H](C)/C=C/c2cnn(Cc3ccc(OCC4CC4)cc3Cl)c2)ccn1 [Compound I-233] | 44
C[C@@H](/C=C/c1cnn(Cc2ccc(OCC3CC3)cc2Cl)c1)NC(=O)c1ccnc(C(N)=O)c1 [Compound I-235] | 300
C[C@@H](/C=C/c1cnn(Cc2ccc(OCC3CC3)cc2Cl)c1)NC(=O)c1ccnc(C(=O)NC(C)(C)C)c1 [Compound I-236] | 15
C[C@@H](/C=C/c1cnc(Oc2ccc(OCC3CC3)cc2Cl)s1)NC(=O)c1ccnc(CO)c1 [Compound I-237] | 87
C[C@@H](/C=C/c1cnc(Oc2ccc(OCC3CC3)cc2Cl)s1)NC(=O)c1ccnc(OCCN2CCCC2)c1 [Compound I-242] | 16
C[C@@H](/C=C/c1cnc(Oc2ccc(OCC3CC3)cc2Cl)s1)NC(=O)c1ccnc(NCCO)c1 [Compound I-243] | 410
C[C@@H](/C=C/c1cnc(Oc2ccc(OCC3CC3)cc2Cl)s1)NC(=O)c1ccnc(NCCN2CCCC2)c1 [Compound I-244] | 36
C[C@@H](/C=C/c1cnc(Oc2ccc(OCC3CC3)cc2Cl)s1)NC(=O)c1ccnc(NCCCN2CCCC2=O)c1 [Compound I-246] | 73
CCOC(=O)CCNc1cc(C(=O)N[C@@H](C)/C=C/c2cnc(Oc3ccc(OCC4CC4)cc3Cl)s2)ccn1 [Compound I-247] | 430
C[C@@H](/C=C/c1cnc(Oc2ccc(OCC3CC3)cc2Cl)s1)NC(=O)c1ccnc(OCC(=O)O)c1 [Compound I-248] | 580

Same assay, conditions: inhibition activity on human ACC2, untitled table (Table 81); read-out: IC50

Structure (SMILES) | IC50 [nM]
CC(=O)N[C@@H](C)/C=C/c1ccc(Oc2ccc(NC(=O)CC3CC3)cc2Cl)nc1 [Compound I-251] | 96
CCC(C)(C)c1ccc(Oc2ccc(/C=C/[C@H](C)NC(C)=O)cn2)c(Cl)c1 [Compound I-253] | 17
CC(=O)N[C@@H](C)/C=C/c1ccc(Oc2ccnc(OCC3CC3)c2)nc1 [Compound I-255] | 87
CC(=O)N[C@@H](C)/C=C/c1ccc(Oc2ccc(NC(=O)CCCCl)cc2Cl)nc1 [Compound I-256] | 50
COc1cc(F)cc(Oc2ccc(/C=C/[C@H](C)NC(C)=O)cn2)c1 [Compound I-257] | 160
COc1ccc(F)c(Oc2ccc(/C=C/[C@H](C)NC(C)=O)cn2)c1 [Compound I-258] | 450
COc1cc(Oc2ccc(/C=C/[C@H](C)NC(C)=O)cn2)ccc1F [Compound I-259] | 400
CC(=O)N[C@@H](C)/C=C/c1ccc(Oc2ccc3c(c2)OCC(=O)N3CC2CC2)nc1 [Compound I-260] | 150
CC(=O)N[C@@H](C)/C=C/c1cnn(Cc2c(F)cc(OCC3CC3)cc2F)c1 [Compound I-261] | 3000
